Results reported in patent publication US4732970A, “Antitumor amino acid and peptide derivatives of 1,4-bis(aminoalkyl and hydroxy-aminoalkyl)amino)-5,8-dihydroxyanthraquinones” (priority 1986, dated 1988).

Columns and labels:
[1] = system: lymphocytic leukemia P388; assay: Lymphocytic Leukemia P388 Test; format: in vivo, BDF1 mice; settings: for Median Survival: BDF1 mice; for T/C × 100 (%): ratio of survival time treated/control
Procedure, shortened: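 BDF1 mice (5–6 per group) were inoculated i.p. with 10^6 P388 cells, then dosed i.p. on days 1, 5 and 9 at various doses. Survival was followed for 60 days, and median survival time and the treated/control (T/C) survival ratio were calculated.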

[2] = system: melanotic melanoma B16 tumor; assay: Melanotic Melanoma B16 test; format: in vivo, BDF1 mice; settings: for Median Survival: BDF1 mice; for T/C × 100 (%): ratio of survival time treated/control
Experimental: The animals used were BDFl mice, all of the same sex, weighing a minimum of 17 g and all within a 3 g weight range. There were 12 animals per test group. A 1 g portion of melanotic melanoma B16 tumor was homogenized in 10 ml of cold balanced salt solution and a 0.5 ml aliquot of the homogenate was implanted intraperitoneally into each of the test mice. The test compounds were administered intraperitoneally on days 1, 5 and 9 (relative to tumor inoculation) at various doses. The animals were weighed and survivors recorded on a regular basis for 60 days. The median survival time and ratio of survival time for treated (T)/control (C) animals were calculated. The positive control compound was 1,4-bis[(2-aminoethyl)amino]-5,8-dihydroxyanthraquinone, dihydrochloride (U.S. patent application Ser. No. 87,354, filed Oct. 23, 1979).

[3] = dose 0.75 mg/kg intraperitoneally on days 1, 5 and 9
[4] = dose 1.5 mg/kg intraperitoneally on days 1, 5 and 9
[5] = dose 3 mg/kg intraperitoneally on days 1, 5 and 9

Compound | Median Survival [1, 3] [days] | T/C × 100 (%) [1, 3] [%] | Median Survival [1, 4] [days] | T/C × 100 (%) [1, 4] [%] | Median Survival [1, 5] [days] | T/C × 100 (%) [1, 5] [%] | Median Survival [2, 3] [days] | T/C × 100 (%) [2, 3] [%] | Median Survival [2, 4] [days] | T/C × 100 (%) [2, 4] [%] | Median Survival [2, 5] [days] | T/C × 100 (%) [2, 5] [%]
Cl.Cl.N[C@@H](CCC(=O)O)C(=O)NCCNc1ccc(NCCNC(=O)[C@@H](N)CCC(=O)O)c2c1C(=O)c1c(O)ccc(O)c1C2=O (relative stereo) [Example 23, [S-(R*,R*)]-5,5'-[(9,10-Dihydro-5,8-dihydroxy-9,10-dioxo-1,4-anthracenediyl)bis(imino-2,1-ethanediylimino)]-bis[4-amino-5-oxo-pentanoic acid], dihydrochloride] | 22.0 | 220 | 24.5 | 245 | 41.0 | 410 | 27.5 | 162 | 31.0 | 182 | 22.0 | 129
Cl.Cl.NCCNc1ccc(NCCN)c2c1C(=O)c1c(O)ccc(O)c1C2=O [1,4-bis[(2-aminoethyl)amino]-5,8-dihydroxyanthraquinone, dihydrochloride, reference compound] |  |  |  |  |  |  |  |  | 46.5 | 274 |  | 
CC(C)C[C@H](NC(=O)[C@H](C)NC(=O)[C@@H](N)CC(=O)O)C(=O)NCCNc1ccc(NCCNC(=O)[C@H](CC(C)C)NC(=O)[C@H](C)NC(=O)[C@@H](N)CC(=O)O)c2c1C(=O)c1c(O)ccc(O)c1C2=O.O=C(O)C(F)(F)F.O=C(O)C(F)(F)F [Example 84, N,N'-[(9,10-Dihydro-5,8-dihydroxy-9,10-dioxo-1,4-anthracenediyl)bis(imino-2,1-ethanediyl)]bis[L-α-aspartyl-L-alanyl-L-leucinamide]bis(trifluoroacetate)] | 24.0 | 240 | 21.5 | 215 | 28.0 | 280 |  |  |  |  |  | 
Br.Br.N=C(N)NCCC[C@H](N)C(=O)NCCNc1ccc(NCCNC(=O)[C@@H](N)CCCNC(=N)N)c2c1C(=O)c1c(O)ccc(O)c1C2=O [Example 86, N,N'-[(9,10-Dihydro-5,8-dihydroxy-9,10-dioxo-1,4-anthracenediyl)bis(imino-2,1-ethanediyl)]-L-arginine, dihydrobromide] | 22.0 | 200 | 27.0 | 245 | 34.5 | 314 |  |  |  |  |  | 
Br.Br.C[C@H](NCCNc1ccc(NCCN[C@@H](C)C(=O)N[C@@H](CCCNC(=N)N)C(=O)OC(C)(C)C)c2c1C(=O)c1c(O)ccc(O)c1C2=O)C(=O)N[C@@H](CCCNC(=N)N)C(=O)OC(C)(C)C [Example 87, N,N'-[(9,10-Dihydro-5,8-dihydroxy-9,10-dioxo-1,4-anthracenediyl)bis(imino-2,-ethanediyl)]bis[L-alanyl-L-arginine]bis(1,1-dimethylethyl)ester, dihydrobromide] | 17.0 | 170 | 19.0 | 190 | 20.5 | 205 |  |  |  |  |  | 
Br.Br.Br.Br.C[C@H](N)C(=O)N[C@@H](CCCNC(=N)N)C(=O)NCCNc1ccc(NCCNC(=O)[C@H](CCCNC(=N)N)NC(=O)[C@H](C)N)c2c1C(=O)c1c(O)ccc(O)c1C2=O [Example 88, N,N'-[(9,10-Dihydro-5,8-dihydroxy-9,10-dioxo-1,4-anthracenediyl)bis(imino-2,1-ethanediyl)]bis-[L-alanyl-L-argininamide]tetrahydrobromide] | 22.5 | 225 | 33.0 | 330 | 44.0 | 440 |  |  |  |  |  | 
Br.Br.C[C@H](NC(=O)OC(C)(C)C)C(=O)N[C@@H](C)C(=O)N[C@@H](CCCNC(=N)N)C(=O)NCCNc1ccc(NCCNC(=O)[C@H](CCCNC(=N)N)NC(=O)[C@H](C)NC(=O)[C@H](C)NC(=O)OC(C)(C)C)c2c1C(=O)c1c(O)ccc(O)c1C2=O [Example 89, N,N'-[(9,10-Dihydro-5 8-dihydroxy-9,10-dioxo-1,4-anthracenediyl)bis(imino-2,1-ethanediyl)]bis[N-[(1,1-dimethylethoxy)carbonyl]-L-alanyl-L-alanyl-L-argininamide]-dihydrobromide] | 17.0 | 155 | 17.5 | 159 | 24.5 | 223 |  |  |  |  |  | 
Br.Br.C[C@H](N)C(=O)N[C@@H](C)C(=O)N[C@@H](CCCNC(=N)N)C(=O)NCCNc1ccc(NCCNC(=O)[C@H](CCCNC(=N)N)NC(=O)[C@H](C)NC(=O)[C@H](C)N)c2c1C(=O)c1c(O)ccc(O)c1C2=O.O=C(O)C(F)(F)F.O=C(O)C(F)(F)F [Example 90, N,N'-[(9,10-Dihydro-5,8-dihydroxy-9,10-dioxo-1,4-anthracenediyl)bis(imino-2,1-ethanediyl)]bis[L-alanyl-L-alanyl-L-argininamide], dihydrobromide, bis(trifluoroacetate)] | 23.5 | 214 | 23.5 | 214 | 19.5 | 177 |  |  |  |  |  | 
Br.Br.C[C@H](NC(=O)[C@H](CO)NC(=O)[C@H](CCCNC(=N)N)NC(=O)OCc1ccccc1)C(=O)NCCNc1ccc(NCCNC(=O)[C@H](C)NC(=O)[C@H](CO)NC(=O)[C@H](CCCNC(=N)N)NC(=O)OCc2ccccc2)c2c1C(=O)c1c(O)ccc(O)c1C2=O [Example 93, N,N'-[(9,10-Dihydro-5,8-dihydroxy-9,10-dioxo-1,4-anthracencdiyl)bis(imino-2,1-ethanediyl)][L-alanyl-L-seryl-carbobenzyloxy-L-argininamide]dihydrobromide] | 22.0 | 200 | 22.5 | 205 | 24.5 | 223 |  |  |  |  |  | 
Br.Br.Br.Br.C[C@H](NC(=O)[C@H](CO)NC(=O)[C@@H](N)CCCNC(=N)N)C(=O)NCCNc1ccc(NCCNC(=O)[C@H](C)NC(=O)[C@H](CO)NC(=O)[C@@H](N)CCCNC(=N)N)c2c1C(=O)c1c(O)ccc(O)c1C2=O [Example 94, N,N'-[(9,10-Dihydro-5,8-dihydroxy-9,10-dioxo-1,4-anthracenediyl)bis(imino-2,1-ethanediyl)]bis[L-arginyl-L-seryl-L-alaninamide], tetrahydrobromide] | 21.5 | 195 | 21.0 | 191 | 34.5 | 314 |  |  |  |  |  | 
N,N'-[(9,10-Dihydro-5,8-dihydroxy-9,10-dioxo-1,4-anthracenediyl)bis(imino-2,1-ethanediyl)]bis[L-alanyl-L-alanine]bis(trifluoroacetate) [Example 72] | 20.0 | 190 | 20.0 | 190 | 23.0 | 219 |  |  |  |  |  | 
N,N'-[(9,10-Dihydro-5,8-dihydroxy-9,10-oxo-1,4-anthracenediyl)bis(imino-2,1-ethanediyl) ]bis[L-arginine(phenylmethyl)]ester, dihydrobromide [Example 85] | 21.5 | 179 | 21.0 | 175 | 22.5 | 188 |  |  |  |  |  | 
[S-(R*,R*)][(9,10-Dihydro-5,8-dihydroxy-9,10-dioxo-1,4-anthracenediyl)bis[1-[3-[[imino(nitroamino)methyl]amino]propyl]-2-oxo-2,1-ethanediyl]]bis-carbamic acid, bis(phenylmethyl)ester [Example 91] | 15.5 | 141 | 16.5 | 150 | 18.0 | 164 |  |  |  |  |  | 
[S-(R*,R*)][(9,10-Dihydro-5,8-dihydroxy-9,10-dioxo-1,4-anthracenediyl)bis[imino-2,1-ethanediylimino[1-[3-[[imino[[(phenylmethoxy)carbonyl]amino]methyl][(phenylmethoxy)carbonyl]propyl]-2-oxo-2,1-ethanediyl]]]carbamic acid, bis(phenylmethyl)ester [Example 95] | 14.0 | 127 | 16.0 | 145 | 16.0 | 145 |  |  |  |  |  | 
